From US4032659A (priority 1975, dated 1977)
Where “and” joins values, the source holds several entries; their conditions need not be identical. Equal entries are not always repeated. Structures can show the parent of a compound that is named as a salt. Where two headings read alike, the source gives them in different places.

What was measured:
[1] = test system: Herpes virus; format: in vivo, mouse
[2] = test system: Influenza Ann Arbor virus; experiment: Chemoprophylaxis of Influenza Ann Arbor (A1) virus infection in mice; format: in vivo, mouse
[3] = test system: Influenza PR 8 virus; experiment: Chemoprophylaxis of Influenza PR 8 virus infection in mice; format: in vivo, mouse; conditions: oral
[4] = test system: Influenza B Massachusetts virus; experiment: Chemoprophylaxis of Influenza B Massachusetts virus infection in mice; format: in vivo, mouse; conditions: oral
Protocol: The activity of four compounds on Influenza B Mass. was tested in mice.
A portion of a commercially available sample of amantadine was recrystallized from isopropanol. The activity of the material against Influenza B Mass. was tested for the sample as obtained, the recrystallized portion, and the mother liquor obtained from recrystallizing the portion.

[5] = test system: virus infections; experiment: Antiviral screening program, several viruses; conditions: mouse, in vivo
[6] = subcutaneous, total dose 500 μg
[7] = subcutaneous, total dose .00005 μg
[8] = subcutaneous, total dose .0005 μg
[9] = subcutaneous, total dose .005 μg
[10] = subcutaneous, total dose .05 μg

NNC(=O)c1ccncc1 [Isoniazid, isoniazid, reference compound]
No. animals surviving after 6 days ([1]; mouse, in vivo, po): 2 and 1 | Survivors ([1]; oral, total dose .0000005 μg): 1 | No. animals surviving when 17/20 controls are dead ([1]; oral, total dose .000005 μg): 3 | No. animals surviving after 6 days ([1]; oral, total dose .00005 μg): 0 | No. animals surviving when 17/20 controls are dead ([1]; oral, total dose .00005 μg): 3 | No. animals surviving after 6 days ([1]; oral, total dose .0005 μg): 3 | No. animals surviving when 17/20 controls are dead ([1]; oral, total dose .0005 μg): 0 | No. animals surviving when 17/20 controls are dead ([1]; oral, total dose .005 μg): 2 | No. animals surviving when 17/20 controls are dead ([1]; oral, total dose .05 μg): 1 | Survivors ([1]; oral, total dose .05 μg): 1 | Survivors ([2]; oral, total dose .005 μg): 2 | Survivors ([2]; oral, total dose .05 μg): 2 and 1 | Survivors ([2]; oral, total dose .5 μg): 2 and 1 | No. animals surviving after 7 days ([3]; total dose 5 μg): 5 | Survivors ([3]; total dose 5 μg): 2 | No. animals surviving after 7 days ([3]; total dose .0000005 μg): 1 | Survivors ([3]; total dose .0000005 μg): 0 | No. animals surviving after 7 days ([3]; total dose .000005 μg): 2 | Survivors ([3]; total dose .000005 μg): 0 | No. animals surviving after 7 days ([3]; total dose .00005 μg): 0 | Survivors ([3]; total dose .00005 μg): 0 | No. animals surviving after 7 days ([3]; total dose .0005 μg): 0 | Survivors ([3]; total dose .0005 μg): 0 | No. animals surviving after 7 days ([3]; total dose .005 μg): 1 | Survivors ([3]; total dose .005 μg): 1 | No. animals surviving after 7 days ([3]; total dose .05 μg): 2 | Survivors ([3]; total dose .05 μg): 1 | No. animals surviving after 7 days ([3]; total dose .5 μg): 2 | Survivors ([3]; total dose .5 μg): 1 | No. animals surviving after 5 days ([4]; total dose .000005 μg): 3 | No. animals surviving when 100% controls are dead ([4]; total dose .000005 μg): 0 | Survivors ([4]; total dose .000005 μg): 0 | No. animals surviving after 5 days ([4]; total dose .00005 μg): 2 | No. animals surviving when 100% controls are dead ([4]; total dose .00005 μg): 1 | Survivors ([4]; total dose .00005 μg): 0 | No. animals surviving after 5 days ([4]; total dose .0005 μg): 3 | No. animals surviving when 100% controls are dead ([4]; total dose .0005 μg): 2 | Survivors ([4]; total dose .0005 μg): 0 | No. animals surviving after 5 days ([4]; total dose .005 μg): 5 | No. animals surviving when 100% controls are dead ([4]; total dose .005 μg): 1 | Survivors ([4]; total dose .005 μg): 0 | No. animals surviving after 5 days ([4]; total dose .05 μg): 3 | No. animals surviving when 100% controls are dead ([4]; total dose .05 μg): 1 | Survivors ([4]; total dose .05 μg): 0 | No. animals surviving after 5 days ([4]; total dose .5 μg): 3 | No. animals surviving when 100% controls are dead ([4]; total dose .5 μg): 0 | Survivors ([4]; total dose .5 μg): 0 | activity (in words) [5]: active against Influenza PR 8, Influenza Ann Arbor, Influenza B Mass., and Herpes virus

NN [hydrazine, hydrate]
No. animals surviving after 5 days ([2]; oral, total dose 5 μg): 4 | Survivors ([2]; oral, total dose 5 μg): 0 | No. animals surviving after 5 days ([2]; oral, total dose 50 μg): 4 | Survivors ([2]; oral, total dose 50 μg): 0 | No. animals surviving after 5 days ([2]; oral, total dose 500 μg): 5 | Survivors ([2]; oral, total dose 500 μg): 0 | No. animals surviving after 5 days ([2]; oral, total dose .00005 μg): 6 | Survivors ([2]; oral, total dose .00005 μg): 0 | No. animals surviving after 5 days ([2]; oral, total dose .0005 μg): 6 | Survivors ([2]; oral, total dose .0005 μg): 0 | No. animals surviving after 5 days ([2]; oral, total dose .005 μg): 3 | Survivors ([2]; oral, total dose .005 μg): 0 | No. animals surviving after 5 days ([2]; oral, total dose .05 μg): 3 | Survivors ([2]; oral, total dose .05 μg): 1 | No. animals surviving after 5 days ([2]; oral, total dose .5 μg): 6 | Survivors ([2]; oral, total dose .5 μg): 0 | No. animals surviving after 5 days ([2]; subcutaneous, total dose 5 μg): 6 | No. animals surviving after 7 days ([2]; subcutaneous, total dose 5 μg): 6 | Survivors ([2]; subcutaneous, total dose 5 μg, hydrate): 3 | No. animals surviving after 5 days ([2]; subcutaneous, total dose 50 μg): 4 | No. animals surviving after 7 days ([2]; subcutaneous, total dose 50 μg): 7 | No. animals surviving after 5 days [2, 6]: 3 | No. animals surviving after 7 days [2, 6]: 6 | Survivors [2, 6]: 0 | No. animals surviving after 5 days [2, 7]: 1 | No. animals surviving after 7 days [2, 7]: 1 | Survivors [2, 7]: 0 | No. animals surviving after 5 days [2, 8]: 7 | No. animals surviving after 7 days [2, 8]: 5 | No. animals surviving after 5 days [2, 9]: 4 | No. animals surviving after 7 days [2, 9]: 3 | No. animals surviving after 5 days [2, 10]: 6 | No. animals surviving after 7 days [2, 10]: 4 | No. animals surviving after 5 days ([2]; subcutaneous, total dose .5 μg): 5 | No. animals surviving after 7 days ([2]; subcutaneous, total dose .5 μg): 7 | No. animals surviving after 10 days ([3]; total dose 5 μg): 1 | Survivors ([3]; total dose 5 μg): 0 | No. animals surviving after 10 days ([3]; total dose 50 μg): 1 | Survivors ([3]; total dose 50 μg): 0 | No. animals surviving after 7 days ([3]; total dose .000005 μg): 4 | No. animals surviving after 7 days ([3]; total dose .00005 μg): 0 | No. animals surviving when 18/20 of controls are dead ([3]; total dose .00005 μg): 4 | No. animals surviving after 10 days ([3]; total dose .0005 μg): 1 | No. animals surviving when 18/20 of controls are dead ([3]; total dose .0005 μg): 3 | Survivors ([3]; total dose .0005 μg, hydrate): 1 | No. animals surviving after 7 days ([3]; total dose .005 μg): 5 | No. animals surviving after 10 days ([3]; total dose .005 μg): 3 | No. animals surviving when 18/20 of controls are dead ([3]; total dose .005 μg): 1 | No. animals surviving after 10 days ([3]; total dose .05 μg): 0 | No. animals surviving when 18/20 of controls are dead ([3]; total dose .05 μg): 1 | No. animals surviving after 10 days ([3]; total dose .5 μg): 1 | No. animals surviving when 18/20 of controls are dead ([3]; total dose .5 μg): 1 | Survivors ([3]; total dose .5 μg): 1 | activity (in words) [5]: active on Influenza PR 8, Vaccinia in the mouse tail, Herpes in eggs, Herpes in mice, and Influenza Ann Arbor

NNC(N)=O [semicarbazide, hydrochloride]
No. animals surviving when 19/20 controls are dead ([1]; oral, total dose 5 μg): 4 | No. animals surviving when 19/20 controls are dead ([1]; oral, total dose .05 μg): 4 | activity (in words) [5]: effective against Influenza PR 8 virus, Vaccinia virus in the mouse tail, Herpes virus in eggs, Herpes virus in mice, Neurovaccinia, and Influenza Ann Arbor virus
